3 molecules from the supplement of paper PMC9663587 can be followed below.

Among the test systems are AU565; CAL120; CAL51; EVSAT; HCC1143; HCC1187; HCC1569; HCC1937; HCC1954; MDAMB436; PDXHCI002; SUM190PT; UACC812.
Holding throughout (experiment): GRmax, 72 h; higher = less effect;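 note: breast cell lines in 384-well plates, nine doses across a 10^4 range, Dye Drop imaging of viable cells vs DMSO and time-zero plates, GR 0 means no net growth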

Take `O=C(CCCCCCC(=O)Nc1ccccc1)NO` [Vorinostat] (max 10 µM): the “GRmax, 72 h” value is -0.491 GR with AU565; -0.228 GR in the test with CAL120; -0.0506 GR in the test with CAL51; -0.497 GR in the test on EVSAT; -0.253 GR in the test on HCC1143; -0.467 GR in the test with HCC1187. The “GRmax, 72 h” value was -0.294 GR in the test on HCC1569; -0.0085 GR with HCC1937; -0.14 GR in the test with HCC1954; 0.033 GR with MDAMB436; -0.583 GR in the test with PDXHCI002; -0.431 GR with SUM190PT. For the same molecule, in the test on UACC812, the “GRmax, 72 h” value is -0.487 GR.

As to `C=CC(=O)Nc1ccc(C(=O)Nc2[nH]nc3c2CN(C(=O)N[C@H](CN(C)C)c2ccccc2)C3(C)C)cc1` [YKL-5-124] (max 10 µM), the “GRmax, 72 h” value in the test with AU565 was -0.563 GR; with CAL120, 0.182 GR; in the test on CAL51, 0.0082 GR; with EVSAT it was -0.401 GR; in the test on HCC1143 it was -0.0844 GR; in the test on HCC1187, -0.635 GR. In addition, the “GRmax, 72 h” value is -0.164 GR in the test on HCC1569; -0.205 GR in the test with HCC1937; -0.14 GR in the test on HCC1954; -0.0111 GR in the test on MDAMB436; -0.129 GR in the test on PDXHCI002; -0.39 GR in the test on SUM190PT. For the same molecule, in the test on UACC812, the “GRmax, 72 h” value was -0.403 GR.

Turning to `CN1CCN(C(=O)c2ccc3cc(CCNc4ncnc5ccc(C#N)cc45)ccc3c2)CC1` [senexin b] (max 10 µM), the “GRmax, 72 h” value with AU565 worked out at 0.76 GR; in the test on CAL120 it was 0.856 GR; with CAL51, 0.755 GR; in the test with EVSAT, 0.642 GR; in the test with HCC1143 it was 0.452 GR; with HCC1187, 1.62 GR. The “GRmax, 72 h” value with HCC1569 amounted to 0.514 GR; in the test with HCC1937 it was 0.394 GR; in the test with HCC1954, 0.455 GR; with MDAMB436 it was 0.429 GR; in the test on PDXHCI002, 1.06 GR; with SUM190PT it was 0.248 GR. The “GRmax, 72 h” value in the test on UACC812 is 0.248 GR.
